Source: patent US8080668B2, “Thiazoles derivatives as AMPK activator” (Dr. Reddy's Laboratories Limited, priority 2005, dated 2011)

How the values were obtained:
[1] = system: AMPK; test: AMPK activation potential, cell based ELISA with p-AMPK specific antibody, L6 skeletal muscle cells; settings: 10 μM compound, 24 hours, normalized to metformin at 2 mM = 100%
Protocol: (§1) The AMPK activation potential percentages in this specification are calculated with respect to the already known AMPK activator metformin. The percentages are obtained by normalizing the values obtained at concentrations in the range of 2 μM to 10 μM with that of metformin by considering the values obtained for metformin at 2 mM concentrations as 100%. However, the AMPK activation potential percentages can also be calculated with respect to other known AMPK activators also.
(§2) AMPK activation potential of the compounds of formula (I) was evaluated using a cell based ELISA approach. L6 muscle skeletal muscle and Hep G2 hepatoma liver cells were cultured for 48 hours prior to drug addition at various concentrations. Twenty four hours later, the cells were fixed and the ELISA plate developed following standard protocol using p-AMPK specific antibody.
(§3) Various cell lines such as HepG2 and L6 were revived from glycerol stocks (ATCC). The cells were maintained in a T 75 culture flask-containing medium (DMEM +10% fetal calf serum). On reaching a confluence of 70% to 80%, the cells were seeded in a 96 well plate at a density of 10×10^3 cells per well in DMEM +10% FCS medium. The plates were then incubated at 37° C. with 5% CO2 for 48 hours. Various concentrations of drugs were prepared in DMSO and diluted to required concentration with the medium and incubated at 37° C. with 5% CO2 for 24 hours. Cells were fixed with 4% formaldehyde in PBS for 30 minutes at 25-35° C. and washed three times with PBS containing 0.1% Triton X-100. Endogenous peroxidase was quenched with 0.6% H2O2 in PBS-T for 30 minutes and washed three times in PBS-T. The cells were then blocked with 10% FCS in PBS-T for 1hour. The cells were incubated for 8-12 hours with various concentrations of primary antibody in PBS-T containing 5% BSA at 4° C., followed by washing three times with PBS-T for 5 minutes and incubating with a secondary antibody (HRP conjugated 1:500 in PBS-T with 5% BSA for 1 hour at 25-35° C. The cells were washed three times with PBS-T for 5 minutes and twice with PBS and incubated with 100 μl TMB/H2O2 color developing solution for 15 minutes. The reaction was stopped with 50 μl of 1M H2SO4. The plate was then read at 460 nm using ELISA plate reader.
(§4) AMPK activation percentages for various compounds are given in the table below (AMPK activation potential percentages are obtained by normalizing the values obtained at 10 μM concentration with that of metformin by considering the values obtained for metformin at 2 mM concentrations as 100%).

[2] = system: AMPK; test: AMPK activation potential, cell based ELISA with p-AMPK specific antibody, Hep G2 hepatoma liver cells; settings: 10 μM compound, 24 hours; normalized to metformin at 2 mM = 100%; HepG2 cells
Protocol: as §1, §2, §3, §4

| Compound | melting point | AMPK % activation (at 10 μM) L6 skeletal muscle cells [1] | AMPK % activation (at 10 μM) HepG-2 hepatoma liver cells [2] |
| --- | --- | --- | --- |
| O=C(O)Cc1csc(Nc2ccc(-c3ccccc3)cc2)n1 [Example 1-o, [2-(Biphenyl-4-ylamino)-thiazol-4-yl]-acetic acid] | 158 to 159 °C |  |  |
| O=C(O)Cc1csc(Nc2ccc(O)cc2)n1 [Example 1-s, [2-(4-Hydroxy-phenylamino)-thiazol-4-yl]-acetic acid] |  | 92.35% | 86.08% |
| O=C(O)Cc1csc(Nc2ccc(OC(F)(F)F)cc2)n1 [Example 1-e, [2-(4-Trifluoromethoxy-phenylamino)-thiazol-4-yl]-acetic acid] |  | 94.09% | 100.29% |
| O=C(O)Cc1csc(Nc2ccc(F)cc2)n1 [Example 1-a, [2-(4-Fluoro-phenylamino)-thiazol-4-yl]-acetic acid] |  | 81% | 97.9% |
| O=C(O)c1csc(Nc2ccc(Cl)cc2)n1 [Example 2-a, 2-(4-Chloro-phenylamino)-thiazole-4-carboxylic acid] |  | 94.90% | 97.26% |
| O=C(O)Cc1csc(Nc2ccc(Cl)cc2)n1 [Example 1-b, [2-(4-Chloro-phenylamino)-thiazol-4-yl]-acetic acid] |  | 102.63% | 87.11% |
| O=C(O)c1csc(Nc2ccc(-c3csc(-c4ccc(C(F)(F)F)cc4)n3)cc2)n1 [Example 2-d, 2-{4-[2-(4-Trifluoromethyl-phenyl)-thiazol-4-yl]-phenylamino}-thiazole-4-carboxylic acid] |  | 109.70% | 83.89% |
| O=C(O)CCc1csc(Nc2ccc(C(F)(F)F)cc2)n1 [Example 3-e, 3-[2-(4-Trifluoromethyl-phenylamino)-thiazol-4-yl]-propionic acid] |  | 94.72% | 110.47% |
| O=C(O)Cc1csc(Nc2ccc(Sc3ccc(Cl)cc3)cc2)n1 [Example 1-j, {2-[4-(4-Chloro-phenylsulfanyl)-phenylamino]-thiazol-4-yl}-acetic acid] | 191 to 192 °C | 97.09% | 97.56% |
| O=C(O)Cc1csc(Nc2ccc(-c3csc(-c4ccc(C(F)(F)F)cc4)n3)cc2)n1 [Example 1-l, (2-{4-[2-(4-Trifluoromethyl-phenyl)-thiazol-4-yl]-phenylamino}-thiazol-4-yl)-acetic acid] | 171 to 174 °C | 104.37% | 85.27% |
| O=C(O)Cc1csc(Nc2ccc(OCc3ccccc3)cc2)n1 [Example 1-f, [2-(4-Benzyloxy-phenylamino)-thiazol-4-yl]-acetic acid] | 116 to 118 °C | 88.04% | 87.76% |
| CCCCc1ccc(Nc2nc(CC(=O)O)cs2)cc1 [Example 1-p, [2-(4-Butyl-phenylamino)-thiazol-4-yl]-acetic acid] |  | 102.26% | 75.77% |
| O=C(O)Cc1csc(Nc2ccc(Oc3ccc(Cl)cc3)cc2)n1 [Example 1-k, {2-[4-(4-Chloro-phenoxy)-phenylamino]-thiazol-4-yl}-acetic acid] | 192 to 193 °C | 96.19% | 97.56% |
| O=C(O)c1csc(Nc2ccc(-c3csc(-c4ccccc4)n3)cc2)n1 [Example 2-c, 2-[4-(2-Phenyl-thiazol-4-yl)-phenylamino]-thiazole-4-carboxylic acid] | 283 to 286 °C | 102.19% | 96.35% |
| Cc1nc(-c2ccc(Nc3nc(CC(=O)O)cs3)cc2)cs1 [Example 1-n, {2-[4-(2-Methyl-thiazol-4-yl)-phenylamino]-thiazol-4-yl}-acetic acid] | 153 to 156 °C | 83.62% | 98.42% |
| Cc1nc(-c2ccc(Nc3nc(C(=O)O)cs3)cc2)cs1 [Example 2-b, 2-[4-(2-Methyl-thiazol-4-yl)-phenylamino]-thiazole-4-carboxylic acid] | 290 to 292 °C |  |  |
| O=C(O)Cc1csc(Nc2ccc(-c3csc(-c4ccccc4)n3)cc2)n1 [Example 1-m, {2-[4-(2-Phenyl-thiazol-4-yl)-phenylamino]-thiazol-4-yl}-acetic acid] | 148 to 150 °C |  |  |
| Cc1ccc(Nc2nc(CC(=O)O)cs2)cc1 [Example 1-d, (2-p-Tolylamino-thiazol-4-yl)-acetic acid] |  | 99.55% | 97.11% |
| O=C(O)Cc1csc(Nc2ccc(N3CCOCC3)cc2)n1 [Example 1-i, [2-(4-Morpholin-4-yl-phenylamino)-thiazol-4-yl]-acetic acid] | 198 to 199 °C | 109.09% | 69.71% |
